Data: BindingDB's records for doi:10.1016/0960-894X(95)00351-S (1995)

Assay: Inhibition of platelet aggregation using human platelet rich plasma (hPRP) assay (200microL, 2-3 x 10e 8 platelets/mL, n=1)

Question: With CC(C)[C@H]1NC(=O)c2cccc(c2F)CNC(=O)[C@H](CC(=O)O)NC(=O)CNC(=O)[C@H](CCCN=C(N)N)N(C)C1=O [[(5S,11S,14S)-21-Fluoro-11-(3-guanidino-propyl)-14-isopropyl-12-methyl-4,7,10,13,16-pentaoxo-3,6,9,12,15-pentaaza-bicyclo[15.3.1]henicosa-1(20),17(21),18-trien-5-yl]-acetic acid] as the compound, how does the IC50 read?
Answer: The IC50 was 20 nM.

Question: For CC(C)[C@H]1NC(=O)c2ccc([nH]2)CNC(=O)[C@H](CC(=O)O)NC(=O)CNC(=O)[C@H](CCCNC(=N)N)N(C)C1=O [[(5S,11S,14S)-11-(3-Guanidino-propyl)-14-isopropyl-12-methyl-4,7,10,13,16-pentaoxo-3,6,9,12,15,20-hexaaza-bicyclo[15.2.1]icosa-1(19),17-dien-5-yl]-acetic acid], which IC50 is on record?
Answer: Its IC50 is 100 nM.

Question: Which IC50 does the source give for CC(C)[C@H]1NC(=O)C2=CC=C(CNC(=O)[C@H](CC(=O)O)NC(=O)CNC(=O)[C@H](CCCNC(=N)N)N(C)C1=O)O2 [[(5S,11S,14S)-11-(3-Guanidino-propyl)-14-isopropyl-12-methyl-4,7,10,13,16-pentaoxo-20-oxa-3,6,9,12,15-pentaaza-bicyclo[15.2.1]icosa-1(19),17-dien-5-yl]-acetic acid] here?
Answer: Its IC50 is 50 nM.

Question: Which IC50 does the source give for CC(C)[C@H]1NC(=O)c2cccc(n2)CNC(=O)[C@H](CC(=O)O)NC(=O)CNC(=O)[C@H](CCCN=C(N)N)N(C)C1=O [[(5S,11S,14S)-11-(3-Guanidino-propyl)-14-isopropyl-12-methyl-4,7,10,13,16-pentaoxo-3,6,9,12,15,21-hexaaza-bicyclo[15.3.1]henicosa-1(21),17,19-trien-5-yl]-acetic acid] here?
Answer: Its IC50 is 2000 nM.

Question: With CC(C)[C@H]1NC(=O)Cc2csc(n2)NC(=O)[C@H](CC(=O)O)NC(=O)CNC(=O)[C@H](CCCN=C(N)N)N(C)C1=O [[(4S,10S,13S)-10-(3-Guanidino-propyl)-13-isopropyl-11-methyl-3,6,9,12,15-pentaoxo-19-thia-2,5,8,11,14,20-hexaaza-bicyclo[15.2.1]icosa-1(20),17-dien-4-yl]-acetic acid] as the compound, how does the IC50 read?
Answer: The IC50 was 400 nM.

Question: With CC(C)[C@H]1NC(=O)/C=C\CCNC(=O)[C@H](CC(=O)O)NC(=O)CNC(=O)[C@H](CCCNC(=N)N)N(C)C1=O [[(Z)-(3R,9R,12R)-9-(3-Guanidino-propyl)-12-isopropyl-10-methyl-2,5,8,11,14-pentaoxo-1,4,7,10,13pentaaza-cyclooctadec-15-en-3-yl]-acetic acid] as the compound, how does the IC50 read?
Answer: Its IC50 is 200 nM.

Question: Which IC50 does the source give for CC(C)[C@H]1NC(=O)C/C=C\CNC(=O)[C@H](CC(=O)O)NC(=O)CNC(=O)[C@H](CCCN=C(N)N)N(C)C1=O [[(Z)-(3R,9R,12R)-9-(3-Guanidino-propyl)-12-isopropyl-10-methyl-2,5,8,11,14-pentaoxo-1,4,7,10,13pentaaza-cyclooctadec-16-en-3-yl]-acetic acid] here?
Answer: Its IC50 is 200 nM.

Question: Which IC50 does the source give for CC(C)[C@H]1NC(=O)C2=CC=C(CNC(=O)[C@H](CC(=O)O)NC(=O)CNC(=O)[C@H](CCCN=C(N)N)N(C)C1=O)S2 [[(5S,11S,14S)-11-(3-Guanidino-propyl)-14-isopropyl-12-methyl-4,7,10,13,16-pentaoxo-20-thia-3,6,9,12,15-pentaaza-bicyclo[15.2.1]icosa-1(19),17-dien-5-yl]-acetic acid] here?
Answer: The IC50 was 100 nM.

Question: Which IC50 does the source give for CC(C)[C@H]1NC(=O)c2cccc(c2)CNC(=O)[C@H](CC(=O)O)NC(=O)CNC(=O)[C@H](CCCNC(=N)N)N(C)C1=O [DMP-757] here?
Answer: The IC50 was 20 nM.
